# Measured values published in patent US5840711A, “Compositions containing lithium inorganic salts and anti-viral drugs and method of treating viral infections such as acquired immunodeficiency syndrome” (priority 1997, dated 1998).
# Entries after “also recorded” stand apart in the source; their conditions may differ. Read-outs that look alike come from different tables or passages of the source.
# Assays:
# [1] = tested on: CFU-GM of Normal Bone Marrow
# Description: (§1) The laboratory studies were performed in vitro to evaluate whether either drugs, i.e., with or without their lithium formulation when combined with either normal bone marrow cells or bone marrow cells taken from MAIDS animals would express: 1) differences in their toxicity profile when measured in culture and 2) differences comparing the responses using normal bone marrow cells versus bone marrow cells from MAIDS animals, in other words, comparing viral-infected cells with non-viral infected cells.
# (§2) This table is interpreted as follows.
# [2] = tested on: BFU-E of Normal Bone Marrow
# Description: as §1, §2
# [3] = tested on: HIV-positive patient with severe Factor VIII deficiency; conditions: cited from earlier work
# [4] = tested on: CFU-Meg (Megakaryocyte) of normal bone marrow cells; experiment: AZT bone marrow toxicity in vitro, CFU-Meg colony formation; format: cell-based
# Text: (§3) This is a standard practice.
# [5] = tested on: BFU-E (Erythroid) of normal bone marrow cells; experiment: AZT bone marrow toxicity in vitro, BFU-E colony formation; format: cell-based
# Text: as §3
# [6] = tested on: HIV-infected patients; conditions: cited from earlier work
# [7] = tested on: Normal Mice
# Description: C57BL6 were administered dose-escalation AZT (1.0 mg/ml and 2.5 mg/ml) for a period of 4-weeks. […] Animals were analyzed on a weekly basis for their peripheral blood indices.
# C57BL6 female mice were purchased from Harlan, Indianapolis, Ind., USA used at 6-12 weeks of age, and housed 5 to a cage. […] Mice received Purina Autoclavable Chow and water ad libitum until initiation of the study. Thereafter, water containing lithium was supplied to the animals and daily water consumption was monitored.
# In order to evaluate the ability of lithium to influence the hematopoietic toxicity associated with AZT in mice that had already been exposed to AZT, the following protocol was established. […] AZT and lithium were added to the animal drinking water Groups II, III, V and VI began their AZT all at the same time. Groups V and VI, at the beginning of week 5, received lithium that was added to their water supply. All treated groups then continued to receive AZT for an additional 4 weeks, equaling a total treatment-study period lasting 8-weeks in duration.
# Animals were serially sacrificed, at least three to a group, on a weekly basis, for eight consecutive weeks. Animals were bled from the tail vein (600 μl) for assessment of peripheral blood indices; i.e., packed red cell volume, white blood cell, and platelet counts. In addition, at least one femur per animal was obtained and the bone marrow cellularity was calculated using standard laboratory procedures.
# Mean±SE for values comparing control with experimental, utilizing duplicate studies were determined and analyzed using the two-sample ranks test of Wilcoxam-White (P<0.05) to determine significance.
# [8] = tested on: AIDS patients; conditions: clinical use; listed as zidovudine (AZT); cited from earlier work
# [9] = tested on: CFU-GM (Myeloid) of normal bone marrow cells; experiment: AZT bone marrow toxicity in vitro, CFU-GM colony formation; format: cell-based
# Text: as §3
# [10] = tested on: LP-BM5 MuLV; conditions: cited from earlier work
# [11] = tested on: normal bone marrow cells; conditions: in vitro with normal bone marrow cells (previous work; b10 also in vivo mice); cited from earlier work
# [12] = tested on: LP-BM5 MuLV
# Text: Female C57BL6 mice (8-10 weeks of age) were purchased from Harlan, Indianapolis, Ind., USA. All animals were quarantined for a minimum of 1-week before experimental use. Animals were housed in plastic cages and fed Purina lab chow and water ad libitum.
# LP-BM5 MuLV isolate used in these studies was originally derived from a bone marrow stromal cell line (SC-1) harvested from animals infected with mink cell MuLV (Morse et al., 1992) and is routinely maintained in the laboratory. LP-BM5 MuLV is a retrovirus mixture containing replication-competent helper B-trophic ecotropic mink cell focus forming (MCF) virus and an etiologic 4.9-kb replication defective genome termed EM5-def, susceptibility to which depends on the presence of the FV-1b genotype permissive for B-trophic virus replication (Morse et al., 1992). Therefore, the viral pool permissive for B-trophic virus replication (Morse et al., 1992) consisted of a mixture of B-tropic ecotropic and B-tropic mink cell focus-inducing murine immunodeficiency virus (MuLV). The titers of ecotropic and MCF MuLV were determined by XC plaque assay in SC-1 cells or by SC-1 UV-mink assay. […] To minimize exogenous infection, mice were maintained in microisolator cages and handled in accordance with the NIH Guide for the Care and Use of Laboratory Animals (NIH No. 85-23, 1985). Cages, bedding and food were autoclaved prior to use and all cages and animal handling or monitoring were performed in laminar air flow hoods. Ventilation and air flow in the animal facility was set to 12 changes/h. Room temperatures were regulated at 72°±2° F. and the rooms were on automatic 12-h light/dark cycles. One hundred and twenty mice were infected by i.p. injection of 0.25 ml of LP-BM5 MuLV virus-stock (10 μg of total protein) harvested from the SC-1 cell line following 3-day in vitro culture. The development of MAIDS induced by virus was monitored by physical findings (Morse et al., 1992). […] Increased systemic levels of IgM were used to monitor the development of LP-BM5 MuLV-induced disease.
# In order to evaluate the ability of lithium to influence hematopoiesis in immunodeficient virus-infected animals, the following studies were performed. One hundred and twenty mice infected with LP-BM5 were divided into two groups, i.e., 60 virus-infected mice served as virus controls and the other group was administered lithium carbonate (Li2 CO3, ultra-pure; Alpha Therapeutics, Danville, Mass. USA) placed in the drinking water at a concentration of 1 mM as previously described from this laboratory (Gallicchio et al., 1993). Lithium treatment was initiated 7 days prior to virus infection. […] Lithium was initiated 7 days before virus infection and was continued for the duration of the study. Plasma lithium levels from animals bled by cardiac puncture on the days of examination were monitored by use of flame photometry (Model no. 943, IL Instruments, Lexington, Mass. USA). Virus-infected controls and virus-infected mice treated with lithium were serially sacrificed 1, 5, 9, 13, 17 and 21 weeks following virus inoculation for determination of lithium treatment on hematopoiesis following administration in LP-BMS5 MuLV infected animals.
# [13] = tested on: herpes simplex virus; conditions: in vitro, HSV; cited from earlier work
# [14] = week 3, Lithium Control (1 mM), listed as lithium
compound,measurement,setting,value
"2',2'-Dideoxyinosine [ddI]",CC50,[1],100 µM
same,CC50,[2],1 µM
"Cc1cn([C@H]2C[C@H](N=[N+]=[N-])[C@@H](CO)O2)c(=O)[nH]c1=O [AZT, 3'-azido-3'-deoxythymidine]",Toxicity leading to discontinuation,[3]; after 6 months,"thrombocytopenia, neutropenia, and anemia"
same,CFU-Meg (Megakaryocyte) colonies,[4]; AZT 0.01 μM,16.0 ± 3
same,CFU-Meg (Megakaryocyte) colonies,[4]; AZT 0.1 μM,10.5 ± 3
same,CFU-Meg (Megakaryocyte) colonies,[4]; AZT 1.0 μM,6.5 ± 3
same,CFU-Meg (Megakaryocyte) colonies,[4]; AZT 10.0 μM,2.5 ± 2
same,BFU-E (Erythroid) colonies,[5]; AZT 0.01 μM,43.5 ± 5
same,BFU-E (Erythroid) colonies,[5]; AZT 0.1 μM,37.5 ± 3
same,BFU-E (Erythroid) colonies,[5]; AZT 1.0 μM,21.5 ± 5
same,BFU-E (Erythroid) colonies,[5]; AZT 10.0 μM,14.5 ± 2
same,Tolerated AZT dose with lithium,[6],"up to 1,000 mg"
same,Tolerated zidovudine dose with lithium,"[6]; without observable signs of toxicity (Herbert et al., 1988)",up to 1000 mg/day
same,Lymphocytes and monocytes,"[7]; mouse, in vivo","Lower, but less significant, levels"
same,Toxicity of AZT,[8],myelosuppression and bone marrow toxicity; also recorded: the development of virus resistance and bone marrow suppression
same,CFU-GM (Myeloid) colonies,[9]; AZT 0.01 μM,53.5 ± 3
same,CFU-GM (Myeloid) colonies,[9]; AZT 0.1 μM,39.5 ± 3
same,CFU-GM (Myeloid) colonies,[9]; AZT 1.0 μM,28.5 ± 4
same,CFU-GM (Myeloid) colonies,[9]; AZT 10.0 μM,14.5 ± 3
"O=C([O-])[O-].[Li+].[Li+] [Lithium, lithium carbonate]",Absolute neutrophil and platelet counts,"[3]; within 3 days, 300 mg t.i.d. with methylprednisolone",a remarkable rise
same,Patients responding with neutrophilia,[6]; 5 AIDS patients (report),3 of 5 patients
same,Patients responding with neutrophilia,[6]; AIDS patients (Worthington 1990),one of three
same,"Patients tolerating higher doses of AZT (up to 1,000 mg)",[6],3 of the 5 patients
same,Patients with significant hematopoiesis,[6],Three of the five patients
same,Patients responding with neutrophilia,"[6]; lithium at least 4 weeks, no AZT (Parenti et al., 1988)",6 of 7
same,Lithium toxicity,"[6]; no AZT (Parenti et al., 1988)",further lithium usage was limited due to the presence of lithium toxicity
same,Patients demonstrating significant hematopoiesis,"[6]; with zidovudine (Herbert et al., 1988)",Three of the 5
same,Reduction in eosinophils,[7]; AZT with lithium treatment,prevented this reduction in eosinophils observed with AZT
same,Thrombocytopenia,"[7]; following lithium, each week examined, both AZT groups",no thrombocytopenia
same,Eosinophils,"[7]; week 1, Lithium Control (1 mM)",100 Percent Control
same,Hematocrit,"[7]; week 1, Lithium Control (1 mM)",98 Percent Control
same,Neutrophils,"[7]; week 1, Lithium Control (1 mM)",100 Percent Control
same,Platelets,"[7]; week 1, Lithium Control (1 mM)",100 Percent Control
same,Eosinophils,"[7]; week 2, Lithium Control (1 mM)",100 Percent Control
same,Hematocrit,"[7]; week 2, Lithium Control (1 mM)",82 Percent Control
same,Neutrophils,"[7]; week 2, Lithium Control (1 mM)",54 Percent Control
same,Platelets,"[7]; week 2, Lithium Control (1 mM)",93 Percent Control
same,Eosinophils,"[7]; week 3, Lithium Control (1 mM)",100 Percent Control
same,Hematocrit,"[7]; week 3, Lithium Control (1 mM)",101 Percent Control
same,Neutrophils,"[7]; week 3, Lithium Control (1 mM)",65 Percent Control
same,Platelets,"[7]; week 3, Lithium Control (1 mM)",93 Percent Control
same,Neutrophils,[7]; [14],120 Percent Control
same,Platelets,[7]; [14],116 Percent Control
same,Eosinophils,"[7]; week 4, Lithium Control (1 mM)",100 Percent Control
same,Hematocrit,"[7]; week 4, Lithium Control (1 mM)",100 Percent Control
same,Neutrophils,"[7]; week 4, Lithium Control (1 mM)",61 Percent Control
same,Platelets,"[7]; week 4, Lithium Control (1 mM)",74 Percent Control
same,Eosinophils,"[7]; week 5, Lithium Control (1 mM)",100 Percent Control
same,Hematocrit,"[7]; week 5, Lithium Control (1 mM)",98 Percent Control
same,Neutrophils,"[7]; week 5, Lithium Control (1 mM)",54 Percent Control
same,Platelets,"[7]; week 5, Lithium Control (1 mM)",69 Percent Control
same,Eosinophils,"[7]; week 6, Lithium Control (1 mM)",146 Percent Control
same,Hematocrit,"[7]; week 6, Lithium Control (1 mM)",94 Percent Control
same,Neutrophils,"[7]; week 6, Lithium Control (1 mM)",98 Percent Control
same,Platelets,"[7]; week 6, Lithium Control (1 mM)",69 Percent Control
same,Eosinophils,"[7]; week 7, Lithium Control (1 mM)",100 Percent Control
same,Hematocrit,"[7]; week 7, Lithium Control (1 mM)",98 Percent Control
same,Neutrophils,"[7]; week 7, Lithium Control (1 mM)",120 Percent Control
same,Platelets,"[7]; week 7, Lithium Control (1 mM)",116 Percent Control
same,Eosinophils,"[7]; week 8 (+ lithium from week 5 in combination group), AZT 1.0 mg/ml",110 Percent Control
same,Eosinophils,"[7]; week 8 (+ lithium from week 5 in combination group), AZT 2.5 mg/ml (AZT column headed 2 mg/ml)",164 Percent Control
same,Hematocrit toxicity,"[7]; week 8, lithium versus AZT controls",the same level of toxicity as the AZT controls
same,Eosinophils,"[7]; week 8, Lithium Control (1 mM)",107 Percent Control
same,Hematocrit,"[7]; week 8, Lithium Control (1 mM)",88 Percent Control
same,Neutrophils,"[7]; week 8, Lithium Control (1 mM)",90 Percent Control
same,Platelets,"[7]; week 8, Lithium Control (1 mM)",79 Percent Control
same,Splenomegaly and hypergammaglobulinemia (IgM),"[10]; LP-BM5 MuLV animals (Gallicchio et al., 1994)",reduction in the splenomegaly and hypergammaglobulinemia
same,Toxicity following dose-escalation of AZT,"[10]; MAIDS model in vivo (Gallicchio et al., 1995)",reduced the immunochematopoietic toxicity
same,Hematopoietic progenitor cells from bone marrow or spleen,"[10]; in vivo, with zidovudine (literature)",effectively increased the number of hematopoietic progenitor cells
same,Myelosuppression and marrow toxicity of AZT,[11],reduced the myelosuppression and marrow toxicity of AZT significantly
same,Immune function status,[12]; murine model (MAIDS),significantly improves immune function status
same,Hematopoiesis in MAIDS mice,[12]; versus animals not receiving lithium,significant hematopoiesis
same,Bone marrow BFU-E,[12]; versus viral controls,increased BFU-E that peaked on week 9
same,Bone marrow CFU-GM,[12]; versus viral controls,increased CFU-GM compared to viral controls that peaked on week 9
same,Bone marrow CFU-Meg,[12]; versus viral controls,"increased, although not until week 17 of examination"
same,Splenic BFU-E,[12]; versus viral controls,increased at all time points examined
same,Splenic CFU-GM,[12]; versus viral controls,significantly increased at all time points compared to viral controls
same,Splenic CFU-Meg,[12]; versus viral controls,increased significantly
same,Absolute neutrophils,"[12]; versus virus control group, FIG. 2a",increased
same,Absolute lymphocytes,"[12]; versus virus control group, FIG. 2b",increased
same,Effect on packed red cell volume (hematocrit),"[12]; versus virus-control group, FIG. 1a",decreased the reduction
same,Effect on white blood cell count,"[12]; versus virus-control group, FIG. 1b",decreased the reduction
same,Effect on platelets,"[12]; versus virus-control group, FIG. 1c",decreased the reduction
same,"Signs of lithium toxicity, i.e., tremor",[12]; virus-infected mice receiving lithium,no demonstrable signs of lithium toxicity
same,DNA polymerase activity,[13],inhibition of DNA polymerase activity
"2,3'-Dideoxycytosine [ddC]",CC50,[1],10 µM
same,CC50,[2],0.6 µM
